From patent publication US12138263B2, “Pyrazolo[3,4-b]pyrazine SHP2 phosphatase inhibitors and methods of use thereof” (Relay Therapeutics, Inc., priority 2018, dated 2024)

molecular target: SHP2 (Homo sapiens (Human), UniProt Q06124); assay: SHP2 allosteric inhibition assay (DiFMUP prompt fluorescence); type: biochemical; settings: Table 1; 0.25 nM SHP2 with 0.5 μM peptide IRS1_pY1172(dPEG8)pY1222, substrate DiFMUP 100 μM

| Compound | IC50 |
| --- | --- |
| O=S(=O)(F)Oc1ccc2c(c1)CCCN2c1n[nH]c2nc(N3CCCCC3)cnc12 [Compound 1A] | ≥ 10 µM |
| O=S(=O)(F)Oc1cccc2c1CCCN2c1n[nH]c2nc(N3CCCCC3)cnc12 [Compound 2A] | ≥ 10 µM |
| CC1(CN)CCN(c2cnc3c(N4CCCc5c(OS(=O)(=O)F)cccc54)n[nH]c3n2)CC1 [Compound 3A] | < 1 µM |
| O=S(=O)(F)c1cccc2c1CCCN2c1n[nH]c2nc(N3CCCCC3)cnc12 [Compound 4A] | ≥ 10 µM |
| CC1(CN)CCN(c2cnc3c(N4CCCc5cc(OS(=O)(=O)F)ccc54)n[nH]c3n2)CC1 [Compound 6A] | < 1 µM |
| C[C@@H]1OCC2(CCN(c3cnc4c(N5CCCc6cc(OS(=O)(=O)F)ccc65)n[nH]c4n3)CC2)[C@@H]1N [Compound 7A, 1-(6-((3S,4S)-4-amino-3-methyl-2-oxa-8-azaspiro[4.5]decan-8-yl)-1H-pyrazolo[3,4-b]pyrazin-3-yl)-1,2,3,4-tetrahydroquinolin-6-yl Sulfurofluoridate] | < 1 µM |

same assay, conditions: Table 2; 0.25 nM SHP2 with 0.5 μM peptide IRS1_pY1172(dPEG8)pY1222, substrate DiFMUP 100 μM

| IC50 | Compound |
| --- | --- |
| < 1 µM | COC(=O)C1(c2cnc3c(-c4cccc(Cl)c4F)n[nH]c3n2)CCNCC1 [Compound 1B, methyl 4-(3-(3-chloro-2-fluorophenyl)-1H-pyrazolo[3,4-b]pyrazin-6-yl)piperidine-4-carboxylate] |
| < 1 µM | Fc1c(Cl)cccc1-c1n[nH]c2nc(C3CCNCC3)cnc12 [Compound 2B] |
| < 1 µM | NC(=O)C1(c2cnc3c(-c4cccc(Cl)c4F)n[nH]c3n2)CCNCC1 [Compound 3B] |
| < 1 µM | OCC1(c2cnc3c(-c4cccc(Cl)c4F)n[nH]c3n2)CCNCC1 [Compound 4B] |
| 1 to 10 µM | NC1CCN(C(=O)c2cnc3c(-c4cccc(Cl)c4F)n[nH]c3n2)C1 (stereo not drawn) [Compound 5B] |
| ≥ 10 µM | CC1(CN)CCN(C(=O)c2cnc3c(-c4cccc(Cl)c4F)n[nH]c3n2)C1 (stereo not drawn) [Compound 6B] |

same assay, conditions: Table 3; 0.25 nM SHP2 with 0.5 μM peptide IRS1_pY1172(dPEG8)pY1222, substrate DiFMUP 100 μM

| IC50 | Compound |
| --- | --- |
| < 1 µM | CC1(CN)CCN(c2nc3[nH]nc(-c4cccc(Cl)c4F)c3nc2C#N)CC1 [Compound 1C] |
| < 1 µM | CC1(CN)CCN(c2nc3[nH]nc(-c4cccc(Cl)c4F)c3nc2C(N)=O)CC1 [Compound 2C] |
| < 1 µM | CC1(N)CCN(c2nc3[nH]nc(-c4cccc(Cl)c4F)c3nc2C(N)=O)CC1 [Compound 3C, 6-(4-amino-4-methylpiperidin-1-yl)-3-(3-chloro-2-fluorophenyl)-1H-pyrazolo[3,4-b]pyrazine-5-carboxamide] |
| 1 to 10 µM | CC1(N)CCN(c2nc3[nH]nc(-c4cccc(Cl)c4F)c3nc2C(=O)O)CC1 [Compound 4C, 6-(4-amino-4-methylpiperidin-1-yl)-3-(3-chloro-2-fluorophenyl)-1H-pyrazolo[3,4-b]pyrazine-5-carboxylic Acid] |
| < 1 µM | CC1(CN)CCN(c2nc3[nH]nc(N4CCCc5ncccc54)c3nc2O)CC1 [Compound 5C, 6-(4-(aminomethyl)-4-methylpiperidin-1-yl)-3-(3,4-dihydro-1,5-naphthyridin-1(2H)-yl)-1H-pyrazolo[3,4-b]pyrazin-5-ol] |
| < 1 µM | Cc1nc2c(N3CCCc4ncccc43)n[nH]c2nc1N1CCC(C)(CN)CC1 [Compound 6C, (1-(3-(3,4-dihydro-1,5-naphthyridin-1(2H)-yl)-5-methyl-1H-pyrazolo[3,4-b]pyrazin-6-yl)-4-methylpiperidin-4-yl)methanamine] |

same assay, conditions: Table 4; 0.25 nM SHP2 with 0.5 μM peptide IRS1_pY1172(dPEG8)pY1222, substrate DiFMUP 100 μM

| IC50 | Compound |
| --- | --- |
| < 1 µM | CN(c1cnc2c(-c3cccc(Cl)c3F)n[nH]c2n1)c1ncccc1CN [Compound 1D, N-(3-(aminomethyl)pyridin-2-yl)-3-(3-chloro-2-fluorophenyl)-N-methyl-1H-pyrazolo[3,4-b]pyrazin-6-amine] |
| < 1 µM | CN(c1cnc2c(-c3cccc(Cl)c3F)n[nH]c2n1)c1ncccc1CCN [Compound 2D, N-(3-(2-aminoethyl)pyridin-2-yl)-3-(3-chloro-2-fluorophenyl)-N-methyl-1H-pyrazolo[3,4-b]pyrazin-6-amine] |
| 1 to 10 µM | CN(c1cnc2c(N3CCCc4ncccc43)n[nH]c2n1)c1ncccc1CCN [Compound 3D, N-(3-(2-aminoethyl)pyridin-2-yl)-3-(3,4-dihydro-1,5-naphthyridin-1(2H)-yl)-N-methyl-1H-pyrazolo[3,4-b]pyrazin-6-amine] |
